This note sets out measurements from article PMC9997068, “Impact of Gastric pH Variations on the Release of Amorphous Solid Dispersion Formulations Containing a Weakly Basic Drug and Enteric Polymers” (Molecular Pharmaceutics, 2023).

The data set is described as follows: Drug crystallization in media of different pH (PXRD). The format is physicochemical. As to the method: PXRD was used to confirm the amorphous state of freshly prepared DLM ASDs and to detect drug crystallization in solution. […] Crystallization of the DLM salt was evaluated at predetermined time points. Drug crystallization in ASDs upon acidic incubation was conducted at the same drug concentration as in the dissolution testing: 20 mg of ASD powder was added to 50 mL of acidic solutions at pH 1.6, 3.0, or 5.0 and kept stirring at 300 rpm, 37 °C for 1 h.
Undissolved particles were collected by vacuum filtration and analyzed using a Rigaku Smartlab diffractometer (Rigaku Americas, The Woodlands, TX) equipped with a Cu–Kα radiation source and a D/tex ultradetector. Diffractograms were acquired with a scanning speed of 4°/min (4–40° 2θ) and 0.02° step size. The voltage and current were 40 kV and 44 mA, respectively.

Under “crystallization to the free base observed at all pHs investigated”, `C[C@]1(COc2ccc(N3CCC(Oc4ccc(OC(F)(F)F)cc4)CC3)cc2)Cn2cc([N+](=O)[O-])nc2O1.O=S(=O)(O)CCS(=O)(=O)O` [DLM edisylate] displayed a pHmax below 1.6. Also, the “immersion time at which evidence of crystalline free base was seen” value (neat amorphous salt in suspension, 37 °C) is on record as 5 min. Moreover, the “crystallization of neat amorphous salt” value (pH 1.6 and 3.0) is on record as “rapid”. Moreover, the “rate of crystallization of neat amorphous salt” value (pH 5.0 and 6.5) was “much reduced”.
